Data as given in article PMC8468439, “Oxazinethione Derivatives as a Precursor to Pyrazolone and Pyrimidine Derivatives: Synthesis, Biological Activities, Molecular Modeling, ADME, and Molecular Dynamics Studies” (Molecules, 2021).
Values after ≈ are worked out from the molar mass of the structure shown.

Key:
S. aureus = assay: Antimicrobial screening, hole-plate and filter disc; format: cell-based, Staphylococcus aureus; design: key to A (activity): (-) no activity; (+) mild activity with diameter zone of (0.5–0.7 cm); (++) moderate activity with diameter zone of (1.1–1.2 cm); (+++) marked with diameter zone of (1.6–1.8 cm); conditions: for A (activity): zone width of inhibition, compounds dissolved in 10% acetone
Procedure: (§1) All investigations were executed at the Biology department, Faculty of Science, Benha University, Egypt. The antimicrobial activities of all the synthesized molecules were determined in vitro, using the hole-plate and filter disc methodologies. The investigated compounds were dissolved in 10% acetone (v/v). The width of the inhibition zone indicated the potency of the antimicrobial activity: (-) no antimicrobial activity, (+) mild activity with the diameter of the zones equal to (0.5–0.7 cm), (++) moderate activity with the diameter of the zones equal to (1.1–1.2 cm), and (+++) marked activity with the diameter of the zones equal to (1.6–1.8 cm).

A. flavus = assay: as above; format: cell-based, Aspergillus flavus; design: key to A (activity): (-) no activity; (+) mild activity with diameter zone of (0.5–0.7 cm); (++) moderate activity with diameter zone of (1.1–1.2 cm); (+++) marked with diameter zone of (1.6–1.8 cm); conditions: for A (activity): zone width of inhibition, compounds dissolved in 10% acetone
Procedure: as §1

E. coli = assay: as above; format: cell-based, Escherichia coli; design: key to A (activity): (-) no activity; (+) mild activity with diameter zone of (0.5–0.7 cm); (++) moderate activity with diameter zone of (1.1–1.2 cm); (+++) marked with diameter zone of (1.6–1.8 cm); conditions: for A (activity): zone width of inhibition, compounds dissolved in 10% acetone
Procedure: as §1

F. moniliform = assay: as above; format: cell-based, Fusarium moniliform; conditions: for A (activity): zone width of inhibition, compounds dissolved in 10% acetone
Procedure: as §1

MCF-7 for breast cancer = assay: SRB cytotoxicity assay; format: cell-based; conditions: Homo sapiens, MCF7, 72 h, 3 days
Procedure: (§2) The cells were supplied by the Egyptian Holding Company for Biological Products and Vaccines (VACSERA) and then kept in the tissue culture unit. The growth of the cells was affected in RPMI-1640 medium, supplemented with 10% heat-inactivated FBS, 50 units/mL of penicillin, and […] of streptomycin, and maintained in a humidified atmosphere with 5% carbon dioxide. The cells were maintained as monolayer cultures by serial sub-culturing, with cell culture reagents obtained from Lonza (Basel, Switzerland). The antitumor activities of the complexes were assessed against three cell lines MCF-7 for breast cancer, Ovcar-3 for ovarian cancer, and Hela for cervical cancer. In addition, all the results obtained were compared and validated to the LCC-MK2 normal cell line. In the literature, the sulforhodamine B (SRB) assay method was applied to determine the cytotoxicity, as described in [39]. Exponentially growing cells were collected using 0.25% Trypsin-EDTA and seeded in 96-well plates at 1000–2000 cells/well in RBMI-1640-supplemented medium. The cells were kept in the medium for 24 h and then incubated for 3 days with various concentrations of the copper complexes. Following 3 days of treatment, the cells were fixed with 10% trichloroethanoic acid for 1 h at 4 °C. Wells were stained for 10 min at room temperature with 0.4% SRBC dissolved in 1% acetic acid. The plates were air-dried for 24 h, and the dye was dissolved in Tris-HCl for 5 min with shaking at 1600 rpm. An ELISA microplate reader (ChroMate-4300, FL, USA) was used to assess each well’s optical density (O.D.) at 564 nm. The IC50 values were calculated from a Boltzmann sigmoidal concentration-response curve using the nonlinear regression fitting models (Graph Pad, Prism Version 9).

LCC-MK2 normal cell line = assay: SRB cytotoxicity assay; format: cell-based; conditions: 72 h, 3 days
Procedure: as §2

[1] = system: Ovcar-3 for ovarian cancer; assay: SRB cytotoxicity assay; format: cell-based; conditions: Homo sapiens, 72 h, 3 days
Procedure: as §2

Hela for cervical cancer = assay: SRB cytotoxicity assay; format: cell-based; conditions: Homo sapiens, 72 h, 3 days
Procedure: as §2

| melting point [°C] | Compound | Mic (minimum inhibitory concentration) (S. aureus) | A (activity) (S. aureus) | A (activity) (A. flavus) | A (activity) (E. coli) | Mic (minimum inhibitory concentration) (F. moniliform) | A (activity) (F. moniliform) | IC50 (MCF-7 for breast cancer) [µg/mL] | IC50 (LCC-MK2 normal cell line) [µg/mL] | IC50 [1] [µg/mL] | IC50 (Hela for cervical cancer) [µg/mL] | Mic (minimum inhibitory concentration) (E. coli) | Mic (minimum inhibitory concentration) (A. flavus) |
| --- | --- | --- | --- | --- | --- | --- | --- | --- | --- | --- | --- | --- | --- |
| 98 to 100 | N#CC12C(=O)NC(=O)N=C1N=C(CN1C(=O)c3c(Br)c(Br)c(Br)c(Br)c3C1=O)OC2c1ccccc1 (stereo not shown) [Compound 2a] | 125 | + ((+) mild activity with diameter zone of (0.5–0.7 cm)) | - | - | 125 | + ((+) mild activity with diameter zone of (0.5–0.7 cm)) |  |  |  |  |  |  |
|  | N#CC12C(=O)NC(=S)N=C1N=C(CN1C(=O)c3c(Br)c(Br)c(Br)c(Br)c3C1=O)OC2c1ccccc1 (stereo not shown) [Compound 2b] | 250 | ++ ((++) moderate activity with diameter zone of (1.1–1.2 cm)) | - | + ((+) mild activity with diameter zone of (0.5–0.7 cm)) | 125 | + ((+) mild activity with diameter zone of (0.5–0.7 cm)) | 13.8 (≈ 18.2 µM) | 89.3 (≈ 118 µM) | 15.2 (≈ 20.1 µM) | 22.8 (≈ 30.1 µM) | 250 |  |
|  | N#CC12C(=N)NN=C1N=C(CN1C(=O)c3c(Br)c(Br)c(Br)c(Br)c3C1=O)OC2c1ccccc1 (stereo not shown) [Compound 3, 2-(tetrabromophalimidmethyl)-6-phenyl-5-yano-1,3-oxazino[4,5-d]-1,2-pyrazole2[H]-3-one] | 125 | + ((+) mild activity with diameter zone of (0.5–0.7 cm)) | + ((+) mild activity with diameter zone of (0.5–0.7 cm)) | + ((+) mild activity with diameter zone of (0.5–0.7 cm)) | 125 | + ((+) mild activity with diameter zone of (0.5–0.7 cm)) | 15.5 (≈ 21.7 µM) | 206 (≈ 289 µM) | 14.6 (≈ 20.4 µM) | 9.14 (≈ 12.8 µM) | 125 | 125 |
|  | N#CC12C(=N)NC(=O)N=C1N=C(CN1C(=O)c3c(Br)c(Br)c(Br)c(Br)c3C1=O)OC2c1ccccc1 (stereo not shown) [Compound 4a] |  | - | +++ ((+++) marked with diameter zone of (1.6–1.8 cm)) | + ((+) mild activity with diameter zone of (0.5–0.7 cm)) | 250 | + ((+) mild activity with diameter zone of (0.5–0.7 cm)) | 21.7 (≈ 29.2 µM) | 68.9 (≈ 92.9 µM) | 15.9 (≈ 21.4 µM) | 12.9 (≈ 17.4 µM) | 250 | 250 |
|  | N#CC12C(=N)NC(=S)N=C1N=C(CN1C(=O)c3c(Br)c(Br)c(Br)c(Br)c3C1=O)OC2c1ccccc1 (stereo not shown) [Compound 4b] | 250 | ++ ((++) moderate activity with diameter zone of (1.1–1.2 cm)) | - | + ((+) mild activity with diameter zone of (0.5–0.7 cm)) | 125 | + ((+) mild activity with diameter zone of (0.5–0.7 cm)) | 16.6 (≈ 21.8 µM) | 170 (≈ 225 µM) | 11.2 (≈ 14.8 µM) | 14.8 (≈ 19.5 µM) | 250 |  |
|  | N#CC12C(=O)NN=C1N=C(CN1C(=O)c3c(Br)c(Br)c(Br)c(Br)c3C1=O)OC2c1ccccc1 (stereo not shown) [Compound 5, 2-(tetrabromophalimidmethyl)-6-phenyl-5-yano-1,3-oxazino[4,5-d]-1,2-pyrazole2[H]-3-imide] | 250 | ++ ((++) moderate activity with diameter zone of (1.1–1.2 cm)) | +++ ((+++) marked with diameter zone of (1.6–1.8 cm)) | ++ ((++) moderate activity with diameter zone of (1.1–1.2 cm)) | 250 | + ((+) mild activity with diameter zone of (0.5–0.7 cm)) | 12.3 (≈ 17.2 µM) | 191 (≈ 267 µM) | 10.1 (≈ 14.1 µM) | 5.69 (≈ 7.96 µM) | 250 | 250 |
